Experiments:
[1] = biological target: GABAB receptor (Homo sapiens, UniProt Q9UBS5); type: binding, rat and human; conditions: control ligand tested at the highest concentration
[2] = read-out: Kd, literature value; SPR on immobilized GM1; cited from earlier work

GABAB receptor, sequence (Q9UBS5 1-844 isoform Q9UBS5-2): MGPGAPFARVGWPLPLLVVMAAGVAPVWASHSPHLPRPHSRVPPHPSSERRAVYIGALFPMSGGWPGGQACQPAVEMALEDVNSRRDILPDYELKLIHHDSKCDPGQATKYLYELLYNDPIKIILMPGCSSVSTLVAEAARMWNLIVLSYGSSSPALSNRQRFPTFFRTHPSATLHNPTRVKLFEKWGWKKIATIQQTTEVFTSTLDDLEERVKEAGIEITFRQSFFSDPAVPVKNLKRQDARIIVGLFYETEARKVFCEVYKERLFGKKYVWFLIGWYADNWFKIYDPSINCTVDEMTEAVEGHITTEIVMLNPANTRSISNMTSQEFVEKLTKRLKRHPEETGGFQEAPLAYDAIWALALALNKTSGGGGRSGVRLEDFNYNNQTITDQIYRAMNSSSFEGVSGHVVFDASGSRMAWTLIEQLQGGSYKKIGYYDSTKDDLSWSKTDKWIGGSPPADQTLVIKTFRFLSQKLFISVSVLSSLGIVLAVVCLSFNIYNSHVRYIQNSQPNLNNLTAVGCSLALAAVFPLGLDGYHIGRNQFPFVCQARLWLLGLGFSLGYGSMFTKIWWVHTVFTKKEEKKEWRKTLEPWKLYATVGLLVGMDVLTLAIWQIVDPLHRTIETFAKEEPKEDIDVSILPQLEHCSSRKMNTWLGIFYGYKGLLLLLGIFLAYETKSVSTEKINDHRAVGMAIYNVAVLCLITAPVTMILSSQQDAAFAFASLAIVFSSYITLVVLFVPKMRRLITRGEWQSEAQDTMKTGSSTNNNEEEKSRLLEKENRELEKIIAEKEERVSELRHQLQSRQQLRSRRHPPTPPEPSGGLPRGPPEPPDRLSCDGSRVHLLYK
GABAB receptor, sequence (O88871 41-940 partner): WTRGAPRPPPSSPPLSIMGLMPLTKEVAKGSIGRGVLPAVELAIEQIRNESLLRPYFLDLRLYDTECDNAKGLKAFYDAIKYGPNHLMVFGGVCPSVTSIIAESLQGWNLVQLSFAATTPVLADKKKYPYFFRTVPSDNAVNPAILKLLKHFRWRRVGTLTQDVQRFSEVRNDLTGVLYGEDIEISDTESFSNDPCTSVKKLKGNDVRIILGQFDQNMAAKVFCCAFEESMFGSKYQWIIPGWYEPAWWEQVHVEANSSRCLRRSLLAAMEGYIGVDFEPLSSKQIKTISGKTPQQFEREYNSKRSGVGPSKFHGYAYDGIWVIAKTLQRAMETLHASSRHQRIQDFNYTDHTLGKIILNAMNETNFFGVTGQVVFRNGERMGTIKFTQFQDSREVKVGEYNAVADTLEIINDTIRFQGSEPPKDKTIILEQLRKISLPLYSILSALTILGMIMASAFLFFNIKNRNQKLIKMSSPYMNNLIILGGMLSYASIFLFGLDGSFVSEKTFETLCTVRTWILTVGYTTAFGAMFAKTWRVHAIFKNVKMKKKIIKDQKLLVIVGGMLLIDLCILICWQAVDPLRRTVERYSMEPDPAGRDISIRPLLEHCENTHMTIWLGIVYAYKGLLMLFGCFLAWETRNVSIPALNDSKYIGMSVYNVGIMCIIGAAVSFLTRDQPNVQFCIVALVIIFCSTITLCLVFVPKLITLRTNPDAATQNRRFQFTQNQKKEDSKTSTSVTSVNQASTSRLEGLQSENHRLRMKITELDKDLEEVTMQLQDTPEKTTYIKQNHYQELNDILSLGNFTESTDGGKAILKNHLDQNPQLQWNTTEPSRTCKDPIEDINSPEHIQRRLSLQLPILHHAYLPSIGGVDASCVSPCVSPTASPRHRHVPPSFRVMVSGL

Row | Compound | BSI binding curve (negative control) [1] | Kd [2]
1 | C[C@H](N)C(=O)O [L-alanine] | negative control | 
2 | CC(C)CCC[C@@H](C)[C@H]1CC[C@H]2[C@@H]3CC=C4C[C@@H](O)CC[C@]4(C)[C@H]3CC[C@]12C [cholesterol] | negative control | 
3 | Cholera toxin B subunit: cholera toxin B subunit, soluble protein that binds GM1; purchased from Sigma |  | 4 pM
